Experimental data from ChEMBL document CHEMBL4507329, “Data for DCP probe BTZO-1” (2021).

How the values were obtained:
[1] = target: Serine/threonine-protein kinase MRCK alpha (Homo sapiens) (UniProt Q5VT25); settings: Compound concentration 1000.0 nM
[2] = target: Tyrosine-protein kinase FRK (Homo sapiens) (UniProt P42685); settings: Compound concentration 1000.0 nM
[3] = target: Histamine H2 receptor (Homo sapiens) (UniProt P25021); settings: Compound concentration 10.0 uM
[4] = target: Membrane-associated tyrosine- and threonine-specific cdc2-inhibitory kinase (Homo sapiens) (UniProt Q99640); settings: Compound concentration 1000.0 nM
[5] = target: Serine/threonine-protein kinase PAK 4 (Homo sapiens) (UniProt O96013); settings: Compound concentration 1000.0 nM
[6] = tested on: Mast/stem cell growth factor receptor Kit (Homo sapiens), P10721 [A829P]; settings: Compound concentration 1000.0 nM
[7] = target: Tyrosine-protein kinase Blk (Homo sapiens) (UniProt P51451); settings: Compound concentration 1000.0 nM
[8] = target: Mitogen-activated protein kinase kinase kinase 5 (Homo sapiens) (UniProt Q99683); settings: Compound concentration 1000.0 nM
[9] = target: Cyclin-dependent kinase 3 (Homo sapiens) (UniProt Q00526); settings: Compound concentration 1000.0 nM
[10] = target: Receptor tyrosine-protein kinase erbB-4 (Homo sapiens) (UniProt Q15303); settings: Compound concentration 1000.0 nM
[11] = target: AP2-associated protein kinase 1 (Homo sapiens) (UniProt Q2M2I8); settings: Compound concentration 1000.0 nM
[12] = target: Mitotic checkpoint serine/threonine-protein kinase BUB1 (Homo sapiens) (UniProt O43683); settings: Compound concentration 1000.0 nM
[13] = target: Serine/threonine-protein kinase Sgk1 (Homo sapiens) (UniProt O00141); settings: Compound concentration 1000.0 nM
[14] = target: Tyrosine-protein kinase HCK (Homo sapiens) (UniProt P08631); settings: Compound concentration 1000.0 nM
[15] = target: Bone morphogenetic protein receptor type-1B (Homo sapiens) (UniProt O00238); settings: Compound concentration 1000.0 nM
[16] = target: Serine/threonine-protein kinase Nek10 (Homo sapiens) (UniProt Q6ZWH5); settings: Compound concentration 1000.0 nM
[17] = target: Serine/threonine-protein kinase Chk2 (Homo sapiens) (UniProt O96017); settings: Compound concentration 1000.0 nM
[18] = target: Mu-type opioid receptor (Homo sapiens) (UniProt P35372); settings: Compound concentration 10.0 uM
[19] = target: Mitogen-activated protein kinase kinase kinase 19 (Homo sapiens) (UniProt Q56UN5); settings: Compound concentration 1000.0 nM
[20] = target: Tyrosine-protein kinase JAK3 (Homo sapiens) (UniProt P52333); settings: Compound concentration 1000.0 nM
[21] = target: Mitogen-activated protein kinase 6 (Homo sapiens) (UniProt Q16659); settings: Compound concentration 1000.0 nM
[22] = target: SRSF protein kinase 3 (Homo sapiens) (UniProt Q9UPE1); settings: Compound concentration 1000.0 nM
[23] = target: Microtubule-associated serine/threonine-protein kinase 1 (Homo sapiens) (UniProt Q9Y2H9); settings: Compound concentration 1000.0 nM
[24] = target: Ribosomal protein S6 kinase alpha-4 (Homo sapiens) (UniProt O75676); settings: Compound concentration 1000.0 nM
[25] = target: Serine/threonine-protein kinase Nek5 (Homo sapiens) (UniProt Q6P3R8); settings: Compound concentration 1000.0 nM
[26] = target: Cyclin-dependent kinase 18 (Homo sapiens) (UniProt Q07002); settings: Compound concentration 1000.0 nM
[27] = target: Phosphatidylinositol 4,5-bisphosphate 3-kinase catalytic subunit beta isoform (Homo sapiens) (UniProt P42338); settings: Compound concentration 1000.0 nM
[28] = target: Serine/threonine-protein kinase 17A (Homo sapiens) (UniProt Q9UEE5); settings: Compound concentration 1000.0 nM
[29] = target: Phosphatidylinositol 3-kinase catalytic subunit type 3 (Homo sapiens) (UniProt Q8NEB9); settings: Compound concentration 1000.0 nM
[30] = target: Insulin receptor (Homo sapiens) (UniProt P06213); settings: Compound concentration 1000.0 nM
[31] = tested on: Tyrosine-protein kinase ABL1 (Homo sapiens), P00519 [F317L]; settings: Compound concentration 1000.0 nM
[32] = target: Mitogen-activated protein kinase kinase kinase 11 (Homo sapiens) (UniProt Q16584); settings: Compound concentration 1000.0 nM
[33] = target: Cyclin-G-associated kinase (Homo sapiens) (UniProt O14976); settings: Compound concentration 1000.0 nM
[34] = target: Cyclin-dependent kinase 2 (Homo sapiens) (UniProt P24941); settings: Compound concentration 1000.0 nM
[35] = target: Serine/threonine-protein kinase Nek3 (Homo sapiens) (UniProt P51956); settings: Compound concentration 1000.0 nM
[36] = tested on: Epidermal growth factor receptor (Homo sapiens), P00533 [UNDEFINED MUTATION]; settings: Compound concentration 1000.0 nM
[37] = target: Serine/threonine-protein kinase 32C (Homo sapiens) (UniProt Q86UX6); settings: Compound concentration 1000.0 nM
[38] = target: Cyclin-dependent kinase 4 (Homo sapiens) (UniProt P11802); settings: Compound concentration 1000.0 nM
[39] = target: Mitogen-activated protein kinase kinase kinase 15 (Homo sapiens) (UniProt Q6ZN16); settings: Compound concentration 1000.0 nM
[40] = tested on: Epidermal growth factor receptor (Homo sapiens), P00533 [UNDEFINED MUTATION]; settings: Compound concentration 1000.0 nM; remark: listed apart in the source
[41] = target: Phosphorylase b kinase regulatory subunit alpha, liver isoform (Homo sapiens) (UniProt P46019); settings: Compound concentration 1000.0 nM
[42] = target: Serine/threonine-protein kinase tousled-like 1 (Homo sapiens) (UniProt Q9UKI8); settings: Compound concentration 1000.0 nM
[43] = target: D(4) dopamine receptor (Homo sapiens) (UniProt P21917); settings: Compound concentration 10.0 uM
[44] = target: Dual specificity mitogen-activated protein kinase kinase 1 (Homo sapiens) (UniProt Q02750); settings: Compound concentration 1000.0 nM
[45] = target: Cyclin-dependent kinase 2 homolog (Plasmodium falciparum (isolate 3D7)) (UniProt P61075); settings: Compound concentration 1000.0 nM

Epidermal growth factor receptor (Homo sapiens), P00533 [UNDEFINED MUTATION], sequence (P00533 whole entry, looked up, change not shown, canonical isoform): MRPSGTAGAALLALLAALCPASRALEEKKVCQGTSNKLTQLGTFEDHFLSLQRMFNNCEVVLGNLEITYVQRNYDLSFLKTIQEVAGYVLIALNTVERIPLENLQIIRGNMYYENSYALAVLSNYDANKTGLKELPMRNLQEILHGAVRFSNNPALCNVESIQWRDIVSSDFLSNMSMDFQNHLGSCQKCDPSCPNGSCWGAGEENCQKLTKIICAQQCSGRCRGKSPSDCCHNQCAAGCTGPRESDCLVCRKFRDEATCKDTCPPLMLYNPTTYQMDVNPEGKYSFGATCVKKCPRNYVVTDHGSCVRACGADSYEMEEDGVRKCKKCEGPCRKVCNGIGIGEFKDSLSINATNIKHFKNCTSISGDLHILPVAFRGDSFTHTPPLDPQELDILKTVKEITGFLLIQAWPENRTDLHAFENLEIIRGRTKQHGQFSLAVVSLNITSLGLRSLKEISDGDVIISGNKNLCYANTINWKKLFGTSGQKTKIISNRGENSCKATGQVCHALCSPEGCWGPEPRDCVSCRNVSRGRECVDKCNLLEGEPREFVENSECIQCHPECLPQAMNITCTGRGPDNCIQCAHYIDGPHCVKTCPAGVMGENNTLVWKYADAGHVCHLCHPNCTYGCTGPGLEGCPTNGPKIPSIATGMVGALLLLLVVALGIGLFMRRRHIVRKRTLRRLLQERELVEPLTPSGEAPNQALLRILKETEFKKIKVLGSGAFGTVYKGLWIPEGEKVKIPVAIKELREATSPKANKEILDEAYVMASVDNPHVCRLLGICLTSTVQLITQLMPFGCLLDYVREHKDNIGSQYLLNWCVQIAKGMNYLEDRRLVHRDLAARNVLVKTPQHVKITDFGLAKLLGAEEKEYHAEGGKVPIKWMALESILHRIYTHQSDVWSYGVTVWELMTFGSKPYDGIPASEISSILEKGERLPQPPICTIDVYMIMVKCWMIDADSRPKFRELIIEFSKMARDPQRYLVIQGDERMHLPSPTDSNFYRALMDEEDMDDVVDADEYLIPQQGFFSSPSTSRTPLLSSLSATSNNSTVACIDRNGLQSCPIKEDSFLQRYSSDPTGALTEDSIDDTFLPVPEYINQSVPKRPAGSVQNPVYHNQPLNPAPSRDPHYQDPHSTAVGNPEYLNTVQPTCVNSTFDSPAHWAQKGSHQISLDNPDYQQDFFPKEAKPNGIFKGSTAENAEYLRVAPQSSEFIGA
Phosphatidylinositol 3-kinase catalytic subunit type 3 (Homo sapiens), sequence (Q8NEB9 whole entry): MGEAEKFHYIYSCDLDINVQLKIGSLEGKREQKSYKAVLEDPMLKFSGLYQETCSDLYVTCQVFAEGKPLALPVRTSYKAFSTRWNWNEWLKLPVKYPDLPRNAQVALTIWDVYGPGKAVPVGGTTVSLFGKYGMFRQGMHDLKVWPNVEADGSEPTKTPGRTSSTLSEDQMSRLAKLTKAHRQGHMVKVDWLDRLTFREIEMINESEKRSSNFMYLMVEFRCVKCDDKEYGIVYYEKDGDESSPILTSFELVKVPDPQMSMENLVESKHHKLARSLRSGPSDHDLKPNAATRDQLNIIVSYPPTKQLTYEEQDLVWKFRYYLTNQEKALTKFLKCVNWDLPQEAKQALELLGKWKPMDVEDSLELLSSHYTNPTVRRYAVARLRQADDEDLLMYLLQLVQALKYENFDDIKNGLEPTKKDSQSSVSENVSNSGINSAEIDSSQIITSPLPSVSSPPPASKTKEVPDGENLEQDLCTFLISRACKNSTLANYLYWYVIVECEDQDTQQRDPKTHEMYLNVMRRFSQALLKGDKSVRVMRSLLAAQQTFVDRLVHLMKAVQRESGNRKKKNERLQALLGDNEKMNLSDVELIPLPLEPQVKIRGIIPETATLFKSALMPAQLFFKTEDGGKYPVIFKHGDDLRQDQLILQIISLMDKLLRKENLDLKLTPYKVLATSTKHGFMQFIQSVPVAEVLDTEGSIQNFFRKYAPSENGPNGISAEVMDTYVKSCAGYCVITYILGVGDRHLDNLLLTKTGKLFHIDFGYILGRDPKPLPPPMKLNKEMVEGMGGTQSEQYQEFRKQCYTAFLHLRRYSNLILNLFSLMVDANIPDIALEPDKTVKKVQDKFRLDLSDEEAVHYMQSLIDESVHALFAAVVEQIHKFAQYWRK
Insulin receptor (Homo sapiens), sequence (P06213 28-758 limits assumed): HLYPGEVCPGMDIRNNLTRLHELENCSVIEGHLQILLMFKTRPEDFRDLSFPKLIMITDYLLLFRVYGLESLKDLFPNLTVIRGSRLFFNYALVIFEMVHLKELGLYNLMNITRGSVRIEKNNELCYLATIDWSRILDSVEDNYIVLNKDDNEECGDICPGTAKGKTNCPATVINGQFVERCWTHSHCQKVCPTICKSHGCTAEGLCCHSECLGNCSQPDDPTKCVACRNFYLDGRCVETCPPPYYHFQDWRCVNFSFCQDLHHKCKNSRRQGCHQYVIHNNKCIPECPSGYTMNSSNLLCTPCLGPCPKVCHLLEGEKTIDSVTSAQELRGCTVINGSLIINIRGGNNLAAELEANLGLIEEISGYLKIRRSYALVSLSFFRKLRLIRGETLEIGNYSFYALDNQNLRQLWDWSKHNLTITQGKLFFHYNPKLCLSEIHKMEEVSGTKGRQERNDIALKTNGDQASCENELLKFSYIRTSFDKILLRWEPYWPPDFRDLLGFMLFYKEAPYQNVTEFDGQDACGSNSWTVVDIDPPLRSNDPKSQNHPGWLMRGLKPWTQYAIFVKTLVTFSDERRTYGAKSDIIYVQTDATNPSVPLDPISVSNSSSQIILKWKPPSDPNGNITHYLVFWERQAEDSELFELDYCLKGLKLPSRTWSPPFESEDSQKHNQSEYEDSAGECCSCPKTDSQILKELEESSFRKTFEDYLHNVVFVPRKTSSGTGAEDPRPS
Insulin receptor (Homo sapiens), sequence (P06213 763-1382 limits assumed): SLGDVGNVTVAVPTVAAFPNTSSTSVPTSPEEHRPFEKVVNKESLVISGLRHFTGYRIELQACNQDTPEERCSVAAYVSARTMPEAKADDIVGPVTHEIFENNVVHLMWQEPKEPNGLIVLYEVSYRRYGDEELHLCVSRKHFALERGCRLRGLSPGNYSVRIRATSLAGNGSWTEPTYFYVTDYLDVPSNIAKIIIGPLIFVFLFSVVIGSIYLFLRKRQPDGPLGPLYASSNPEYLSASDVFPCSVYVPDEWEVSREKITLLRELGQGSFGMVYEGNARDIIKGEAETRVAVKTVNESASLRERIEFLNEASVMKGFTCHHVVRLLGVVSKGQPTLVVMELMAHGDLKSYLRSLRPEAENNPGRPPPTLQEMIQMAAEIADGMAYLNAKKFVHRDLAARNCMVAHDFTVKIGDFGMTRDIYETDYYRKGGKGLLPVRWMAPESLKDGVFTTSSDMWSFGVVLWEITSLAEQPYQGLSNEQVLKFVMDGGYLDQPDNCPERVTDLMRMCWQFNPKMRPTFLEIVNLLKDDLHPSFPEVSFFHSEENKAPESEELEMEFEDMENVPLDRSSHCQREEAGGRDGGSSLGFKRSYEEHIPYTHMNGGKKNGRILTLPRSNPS
Microtubule-associated serine/threonine-protein kinase 1 (Homo sapiens), sequence (Q9Y2H9 whole entry, looked up): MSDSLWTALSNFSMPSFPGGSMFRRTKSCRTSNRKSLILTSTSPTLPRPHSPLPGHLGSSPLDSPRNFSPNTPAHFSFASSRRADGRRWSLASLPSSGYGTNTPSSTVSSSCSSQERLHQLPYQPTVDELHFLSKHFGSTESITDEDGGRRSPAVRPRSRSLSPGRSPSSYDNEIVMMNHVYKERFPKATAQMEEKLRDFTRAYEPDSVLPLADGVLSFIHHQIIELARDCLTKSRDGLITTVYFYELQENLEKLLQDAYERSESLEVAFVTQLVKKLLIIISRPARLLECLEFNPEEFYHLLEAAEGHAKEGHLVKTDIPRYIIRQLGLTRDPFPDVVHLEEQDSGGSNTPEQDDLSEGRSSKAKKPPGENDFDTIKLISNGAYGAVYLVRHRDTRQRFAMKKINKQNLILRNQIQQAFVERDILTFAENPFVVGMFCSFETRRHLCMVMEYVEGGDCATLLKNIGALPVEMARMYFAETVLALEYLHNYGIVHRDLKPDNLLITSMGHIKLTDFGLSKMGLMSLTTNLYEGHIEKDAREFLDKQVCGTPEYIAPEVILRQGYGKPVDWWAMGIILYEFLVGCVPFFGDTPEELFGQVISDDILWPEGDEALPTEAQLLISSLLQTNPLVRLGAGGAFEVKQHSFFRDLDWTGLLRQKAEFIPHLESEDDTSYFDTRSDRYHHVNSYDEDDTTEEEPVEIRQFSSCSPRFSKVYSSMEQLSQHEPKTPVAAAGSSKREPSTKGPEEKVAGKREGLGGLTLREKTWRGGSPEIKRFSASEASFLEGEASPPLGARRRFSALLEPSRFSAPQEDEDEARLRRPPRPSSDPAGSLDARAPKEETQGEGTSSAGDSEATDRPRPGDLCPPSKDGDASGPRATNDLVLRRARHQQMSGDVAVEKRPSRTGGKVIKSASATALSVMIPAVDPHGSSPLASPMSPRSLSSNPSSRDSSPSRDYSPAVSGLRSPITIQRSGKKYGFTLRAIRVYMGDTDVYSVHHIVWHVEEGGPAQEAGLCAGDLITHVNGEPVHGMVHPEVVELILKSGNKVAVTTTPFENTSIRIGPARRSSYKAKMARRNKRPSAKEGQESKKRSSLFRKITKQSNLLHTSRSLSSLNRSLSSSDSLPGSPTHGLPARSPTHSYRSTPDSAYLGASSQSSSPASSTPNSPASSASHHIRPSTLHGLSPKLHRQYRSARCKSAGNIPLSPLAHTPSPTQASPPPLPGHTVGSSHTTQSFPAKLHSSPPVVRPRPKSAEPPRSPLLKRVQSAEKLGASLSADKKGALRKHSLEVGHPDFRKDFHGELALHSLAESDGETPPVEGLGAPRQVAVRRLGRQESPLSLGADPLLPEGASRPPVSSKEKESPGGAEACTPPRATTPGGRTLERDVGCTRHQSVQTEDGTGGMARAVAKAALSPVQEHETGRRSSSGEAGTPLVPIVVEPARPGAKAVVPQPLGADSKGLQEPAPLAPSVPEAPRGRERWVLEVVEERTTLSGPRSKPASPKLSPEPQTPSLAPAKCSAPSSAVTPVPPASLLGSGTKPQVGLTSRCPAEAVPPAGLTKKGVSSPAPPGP

O=c1nc(-c2ccccn2)sc2ccccc12 [BTZO-1]
inactive: residual activity [1] 91% | residual activity [2] 100% | inhibition [3] 24.4% | residual activity [4] 100% | residual activity [5] 86% | residual activity [6] 100% | residual activity [7] 88% | residual activity [8] 75% | residual activity [9] 99% | residual activity [10] 96% | residual activity [11] 100% | residual activity [12] 100% | residual activity [13] 99% | residual activity [14] 94% | residual activity [15] 75% | residual activity [16] 100% | residual activity [17] 100% | inhibition [18] 3.52% | residual activity [19] 86% | residual activity [20] 100% | residual activity [21] 73% | residual activity [22] 100% | residual activity [23] 73% | residual activity [24] 100% | residual activity [25] 78% | residual activity [26] 94% | residual activity [27] 100% | residual activity [28] 100% | residual activity [29] 82% | residual activity [30] 100% | residual activity [31] 100% | residual activity [32] 100% | residual activity [33] 97% | residual activity [34] 96% | residual activity [35] 72% | residual activity [36] 70% | residual activity [37] 100% | residual activity [38] 100% | residual activity [39] 100% | residual activity [40] 74% | residual activity [41] 77% | residual activity [42] 93% | inhibition [43] 10.1% | residual activity [44] 100% | residual activity [45] 100%

O=C1NC(c2ccccn2)Sc2ccccc21 (stereo not given) [BTZO-4]
inactive: residual activity [1] 84% | residual activity [2] 100% | inhibition [3] 24.8% | residual activity [4] 100% | residual activity [5] 84% | residual activity [6] 98% | residual activity [7] 77% | residual activity [8] 72% | residual activity [9] 100% | residual activity [10] 77% | residual activity [11] 100% | residual activity [12] 100% | residual activity [13] 87% | residual activity [14] 90% | residual activity [15] 71% | residual activity [16] 100% | residual activity [17] 100% | inhibition [18] 6.47% | residual activity [19] 92% | residual activity [20] 100% | residual activity [21] 72% | residual activity [22] 100% | residual activity [23] 91% | residual activity [24] 100% | residual activity [25] 72% | residual activity [26] 93% | residual activity [27] 100% | residual activity [28] 86% | residual activity [29] 99% | residual activity [30] 88% | residual activity [31] 100% | residual activity [32] 94% | residual activity [33] 100% | residual activity [34] 81% | residual activity [35] 80% | residual activity [36] 86% | residual activity [37] 88% | residual activity [38] 91% | residual activity [39] 85% | residual activity [40] 68% | residual activity [41] 73% | residual activity [42] 94% | inhibition [43] 7.31% | residual activity [44] 100% | residual activity [45] 100%
